Measurements as given in patent publication US20250176599A1, “FLAVOR COMPOSITION AND FOOD AND BEVERAGE” (TAKASAGO INTERNATIONAL CORPORATION, priority 2021, published 2025).

Columns and labels:
[1] = Sensory evaluation of aqueous solution I containing (E)-2-nonenal 1 ppb: off-flavor intensity and masking component intensity; settings: (E)-2-nonenal 1 ppb, average score 0-4
In short: (§1)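 Eight trained panelists tasted water solutions of the off-flavor compounds spiked with nootkatone. Masking-agent taste was scored absolutely from 0 (not sensed) to 4 (strong). Off-flavor was scored relatively, anchored at 4 for the solution without masker and 0 for ion-exchanged water.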

[2] = Sensory evaluation of aqueous solution II containing (E)-2-octenal 10 ppb: off-flavor intensity and masking component intensity; settings: (E)-2-octenal 10 ppb, average score 0-4
In short: as §1

[3] = Sensory evaluation of aqueous solution III containing 1-octen-3-one 1 ppb: off-flavor intensity and masking component intensity; settings: 1-octen-3-one 1 ppb, average score 0-4
In short: as §1

[4] = Sensory evaluation of aqueous solution IV containing 1,5-octadien-3-one 100 ppt: off-flavor intensity and masking component intensity; settings: aqueous solution IV, 1,5-octadien-3-one 100 ppt, average score 0-4
In short: as §1

[5] = Sensory evaluation of aqueous solution V containing 1-octen-3-ol 10 ppb: off-flavor intensity and masking component intensity; settings: 1-octen-3-ol 10 ppb, average score 0-4
In short: as §1

[6] = Sensory evaluation of aqueous solution VI containing 1,5-octadien-3-ol 10 ppb: off-flavor intensity and masking component intensity; settings: aqueous solution VI, 1,5-octadien-3-ol 10 ppb, average score 0-4
In short: as §1

[7] = Sensory evaluation of degradation component-added soymilk I ((E)-2-nonenal 5 ppb); settings: average panel score
Procedure: (§2) To commercially available soymilk (“Delicious Unadjusted Soymilk” manufactured by Kikkoman Corporation), each degradation component was added to prepare degradation component-added soymilks at the concentrations listed in Table 23. To these degradation component-added soymilks, 1,4-dioxacycloheptadecan-5,17-dione was added at the concentrations listed in Table 23 to confirm the intensity of the off-flavor (masking effect) and the intensity of the masking components (impact on the flavor of the soymilk itself) for each sample.
(§3) Eight experienced panelists were selected to conduct a sensory evaluation similar to that of Example 1. […]

[8] = Sensory evaluation of degradation component-added soymilk II (1-octen-3-ol 500 ppb); settings: average panel score
Procedure: as §2, §3

[9] = Overall conclusion of the sensory evaluation across aqueous solutions I to VI
In short: as §1

[10] = Overall conclusion of the sensory evaluation across soymilks I and II
Procedure: as §2
Eight experienced panelists were selected to conduct a sensory evaluation similar to that of Example 1.
The same method as in Example 20 was used to confirm the intensity of the off-flavor (masking effect) derived from unsaturated fatty acids by α-methyl ionone and the intensity of the masking components (impact on the flavor of the soymilk itself).
The same method as in Example 20 was used to confirm the intensity of the off-flavor (masking effect) derived from unsaturated fatty acids by menthyl 3-hydroxybutyrate and the intensity of the masking components (impact on the flavor of the soymilk itself).

O=C1CCCCCCCCCCCC(=O)OCCO1 [1,4-Dioxacycloheptadecan-5,17-Dione, 1,4-dioxacycloheptadecan-5,17-dione]
Off-Flavor Intensity ([1]; 0.001 ppt added): 3.5 points
Off-Flavor Intensity ([1]; 0.01 ppt added): 3.3 points
Off-Flavor Intensity ([1]; 0.1 ppt added): 2.9 points
Off-Flavor Intensity ([1]; 1 ppb added): 1.6 points
Off-Flavor Intensity ([1]; 1 ppt added): 2.8 points
Off-Flavor Intensity ([1]; 10 ppb added): 1.0 points
Off-Flavor Intensity ([1]; 10 ppt added): 2.3 points
Off-Flavor Intensity ([1]; 100 ppb added): 0.3 points
Off-Flavor Intensity ([1]; 100 ppt added): 2.0 points
Off-Flavor Intensity ([2]; 0.001 ppt added): 3.4 points
Off-Flavor Intensity ([2]; 0.01 ppt added): 3.4 points
Off-Flavor Intensity ([2]; 0.1 ppt added): 3.1 points
Off-Flavor Intensity ([2]; 1 ppb added): 1.8 points
Off-Flavor Intensity ([2]; 1 ppt added): 2.8 points
Off-Flavor Intensity ([2]; 10 ppb added): 1.5 points
Off-Flavor Intensity ([2]; 10 ppt added): 2.4 points
Off-Flavor Intensity ([2]; 100 ppb added): 0.6 points
Off-Flavor Intensity ([2]; 100 ppt added): 2.0 points
Off-Flavor Intensity ([3]; 0.001 ppt added): 3.6 points
Off-Flavor Intensity ([3]; 0.01 ppt added): 3.4 points
Off-Flavor Intensity ([3]; 0.1 ppt added): 3.0 points
Off-Flavor Intensity ([3]; 1 ppb added): 1.4 points
Off-Flavor Intensity ([3]; 1 ppt added): 2.6 points
Off-Flavor Intensity ([3]; 10 ppb added): 1.0 points
Off-Flavor Intensity ([3]; 10 ppt added): 2.4 points
Off-Flavor Intensity ([3]; 100 ppb added): 0.3 points
Off-Flavor Intensity ([3]; 100 ppt added): 1.8 points
Off-Flavor Intensity ([4]; 0.001 ppt added): 3.8 points
Off-Flavor Intensity ([4]; 0.01 ppt added): 3.5 points
Off-Flavor Intensity ([4]; 0.1 ppt added): 3.4 points
Off-Flavor Intensity ([4]; 1 ppb added): 2.1 points
Off-Flavor Intensity ([4]; 1 ppt added): 3.0 points
Off-Flavor Intensity ([4]; 10 ppb added): 1.6 points
Off-Flavor Intensity ([4]; 10 ppt added): 2.9 points
Off-Flavor Intensity ([4]; 100 ppb added): 1.0 points
Off-Flavor Intensity ([4]; 100 ppt added): 2.8 points
Off-Flavor Intensity ([5]; 0.001 ppt added): 3.4 points
Off-Flavor Intensity ([5]; 0.01 ppt added): 3.1 points
Off-Flavor Intensity ([5]; 0.1 ppt added): 2.9 points
Off-Flavor Intensity ([5]; 1 ppb added): 1.9 points
Off-Flavor Intensity ([5]; 1 ppt added): 2.8 points
Off-Flavor Intensity ([5]; 10 ppb added): 1.4 points
Off-Flavor Intensity ([5]; 10 ppt added): 2.5 points
Off-Flavor Intensity ([5]; 100 ppb added): 0.5 points
Off-Flavor Intensity ([5]; 100 ppt added): 2.1 points
Off-Flavor Intensity ([6]; 0.001 ppt added): 3.3 points
Off-Flavor Intensity ([6]; 0.01 ppt added): 3.0 points
Off-Flavor Intensity ([6]; 0.1 ppt added): 2.9 points
Off-Flavor Intensity ([6]; 1 ppb added): 1.8 points
Off-Flavor Intensity ([6]; 1 ppt added): 2.5 points
Off-Flavor Intensity ([6]; 10 ppb added): 1.4 points
Off-Flavor Intensity ([6]; 10 ppt added): 2.5 points
Off-Flavor Intensity ([6]; 100 ppb added): 0.9 points
Off-Flavor Intensity ([6]; 100 ppt added): 2.1 points
Masking Component Intensity ([7]; 1 ppb added): 0.3
Off-Flavor Intensity ([7]; 1 ppb added): 2.3
Masking Component Intensity ([7]; 1 ppm added): 2.6
Off-Flavor Intensity ([7]; 1 ppm added): 0.6
Masking Component Intensity ([7]; 10 ppb added): 1.0
Off-Flavor Intensity ([7]; 10 ppb added): 1.8
Masking Component Intensity ([7]; 10 ppt added): 0.0
Off-Flavor Intensity ([7]; 10 ppt added): 3.0
Masking Component Intensity ([7]; 100 ppb added): 1.9
Off-Flavor Intensity ([7]; 100 ppb added): 1.0
Masking Component Intensity ([7]; 100 ppt added): 0.0
Off-Flavor Intensity ([7]; 100 ppt added): 2.9
Masking Component Intensity ([8]; 1 ppb added): 0.9
Off-Flavor Intensity ([8]; 1 ppb added): 1.8
Masking Component Intensity ([8]; 1 ppm added): 2.8
Off-Flavor Intensity ([8]; 1 ppm added): 0.5
Masking Component Intensity ([8]; 10 ppb added): 1.3
Off-Flavor Intensity ([8]; 10 ppb added): 1.3
Masking Component Intensity ([8]; 10 ppt added): 0.4
Off-Flavor Intensity ([8]; 10 ppt added): 2.5
Masking Component Intensity ([8]; 100 ppb added): 2.1
Off-Flavor Intensity ([8]; 100 ppb added): 1.0
Masking Component Intensity ([8]; 100 ppt added): 0.5
Off-Flavor Intensity ([8]; 100 ppt added): 2.0
concentration that masks the off-flavor and does not affect the flavor of the food and/or beverage itself, lower limit [9]: ≥ 0.01 ppt
concentration that masks the off-flavor and does not affect the flavor of the food and/or beverage itself, upper limit [9]: ≤ 10 ppb
concentration that masks the off-flavor and does not affect the flavor of the soymilk itself, lower limit [10]: ≥ 10 ppt
concentration that masks the off-flavor and does not affect the flavor of the soymilk itself, upper limit [10]: ≤ 1 ppm
